Assay results published in ChEMBL document CHEMBL4138121, “Selective photocytotoxicity of anthrols on cancer stem-like cells: The effect of quinone methides or reactive oxygen species” (Eur J Med Chem, 2017).
The source made the active and inactive calls. The rule behind the calls is not given here.

How the values were obtained:
HCT-116 [1] = experiment: Photocytotoxicity against human HCT116 cells assessed as growth inhibition irradiated at 350 nm at 4, 24, 48 hrs post compound addition for 5 mins measured after 72 hrs by MTT assay; assay type: functional, cell-based; settings: HCT-116, light or radiation study
[2] = Dark toxicity against human HCT116 cells after 72 hrs by MTT assay; assay type: cell-based, HCT-116
HCT-116 [3] = experiment: Photocytotoxicity against human HCT116 cells assessed as growth inhibition irradiated at 420 nm at 4, 24, 48 hrs post compound addition for 5 mins measured after 72 hrs by MTT assay; assay type: functional, cell-based; settings: HCT-116, light or radiation study
[4] = Dark toxicity against human H460 cells after 72 hrs by MTT assay; assay type: cell-based, NCI-H460
NCI-H460 [5] = experiment: Photocytotoxicity against human H460 cells assessed as growth inhibition irradiated at 350 nm at 4, 24, 48 hrs post compound addition for 5 mins measured after 72 hrs by MTT assay; assay type: functional, cell-based; settings: NCI-H460, light or radiation study
NCI-H460 [6] = experiment: Photocytotoxicity against human H460 cells assessed as growth inhibition irradiated at 420 nm at 4, 24, 48 hrs post compound addition for 5 mins measured after 72 hrs by MTT assay; assay type: functional, cell-based; settings: NCI-H460, light or radiation study
[7] = Dark toxicity against human MCF7 cells after 72 hrs by MTT assay; assay type: cell-based
MCF7 [8] = experiment: Photocytotoxicity against human MCF7 cells assessed as growth inhibition irradiated at 350 nm at 4, 24, 48 hrs post compound addition for 5 mins measured after 72 hrs by MTT assay; assay type: functional, cell-based; settings: MCF7, light or radiation study
MCF7 [9] = experiment: Photocytotoxicity against human MCF7 cells assessed as growth inhibition irradiated at 420 nm at 4, 24, 48 hrs post compound addition for 5 mins measured after 72 hrs by MTT assay; assay type: functional, cell-based; settings: MCF7, light or radiation study
[10] = Dark toxicity against human SUM159 cells after 72 hrs by MTT assay; assay type: cell-based, SUM-159-PT
SUM-159-PT [11] = experiment: Photocytotoxicity against human SUM159 cells assessed as growth inhibition irradiated at 420 nm at 4, 24, 48 hrs post compound addition for 5 mins measured after 72 hrs by MTT assay; assay type: functional, cell-based; settings: light or radiation study
[12] = Dark toxicity against HMLE-shGFP cells after 72 hrs by MTT assay; assay type: cell-based; settings: human
[13] = Photocytotoxicity against HMLE-shGFP cells assessed as growth inhibition irradiated at 350 nm at 4, 24, 48 hrs post compound addition for 5 mins measured after 72 hrs by MTT assay; assay type: cell-based; settings: Homo sapiens, light or radiation study
[14] = Photocytotoxicity against HMLE-shGFP cells assessed as growth inhibition irradiated at 420 nm at 4, 24, 48 hrs post compound addition for 5 mins measured after 72 hrs by MTT assay; assay type: cell-based; settings: Homo sapiens, light or radiation study
[15] = Dark toxicity against HMLE-shEcad cells after 72 hrs by MTT assay; assay type: cell-based; settings: human
[16] = Photocytotoxicity against HMLE-shEcad cells assessed as growth inhibition irradiated at 350 nm at 4, 24, 48 hrs post compound addition for 5 mins measured after 72 hrs by MTT assay; assay type: functional, cell-based; settings: Homo sapiens, light or radiation study
[17] = Photocytotoxicity against HMLE-shEcad cells assessed as growth inhibition irradiated at 420 nm at 4, 24, 48 hrs post compound addition for 5 mins measured after 72 hrs by MTT assay; assay type: functional, cell-based; settings: Homo sapiens, light or radiation study
HMLE [18] = experiment: Anticlonogenic activity against HMLE-shEcad cells at 1 uM irradiated at 350 nm at 4 hrs post compound addition for 5 mins measured after 24 hrs by crystal violet staining-based assay; assay type: functional, cell-based; settings: Homo sapiens
[19] = Anticlonogenic activity against HMLE-shGFP cells at 1 uM irradiated at 350 nm at 4 hrs post compound addition for 5 mins measured after 24 hrs by crystal violet staining-based assay; assay type: cell-based; settings: human
[20] = Cell cycle arrest in HMLE-shEcad cells at 1 to 5 uM after 24 to 48 hrs in absence of irradiation by propidium iodide staining-based flow cytometric method; settings: human
[21] = Cell cycle arrest in HMLE-shGFP cells assessed as delay in G1 phase at 5 uM after 24 to 48 hrs in absence of irradiation by propidium iodide staining-based flow cytometric method; settings: human
HMLE [22] = experiment: Cell cycle arrest in HMLE-shEcad cells assessed as delay in S/G2 phase at 5 uM irradiated at 420 nm at 4 hrs post compound addition for 5 mins measured after 24 to 48 hrs by propidium iodide staining-based flow cytometric method; assay type: functional; settings: Homo sapiens
[23] = Cell cycle arrest in HMLE-shGFP cells assessed as delay in S/G2 phase at 5 uM irradiated at 420 nm at 4 hrs post compound addition for 5 mins measured after 24 to 48 hrs by propidium iodide staining-based flow cytometric method; settings: human
[24] = Cytotoxicity against HMLE-shGFP cells at 10 uM irradiated at 420 nm at 4 hrs post compound addition for 5 mins measured after 48 hrs by propidium iodide staining-based flow cytometric method; assay type: cell-based; settings: human
HMLE [25] = experiment: Cytotoxicity against HMLE-shEcad cells at 10 uM irradiated at 420 nm at 4 hrs post compound addition for 5 mins measured after 48 hrs by propidium iodide staining-based flow cytometric method; assay type: functional, cell-based; settings: Homo sapiens
MCF7 [26] = experiment: Cell cycle arrest in human MCF7 cells in presence of irradiation; assay type: functional, cell-based
SUM-159-PT [27] = experiment: Cell cycle arrest in human SUM159 cells in presence of irradiation; assay type: functional, cell-based
[28] = Drug uptake in cytoplasm of HMLE-shEcad cells at 5 uM in absence of irradiation measured after 2 to 3 hrs by confocal microscopic method; assay type: ADME, subcellular; settings: human
[29] = Drug uptake in nucleus of HMLE-shEcad cells at 5 uM in absence of irradiation measured after 2 to 3 hrs by confocal microscopic method; assay type: ADME, subcellular; settings: human
[30] = Drug uptake in cytoplasm of HMLE-shGFP cells at 5 uM irradiated at 420 nm for 5 mins measured after 2 to 3 hrs by confocal microscopic method; assay type: ADME, subcellular; settings: human
[31] = Drug uptake in nucleus of HMLE-shGFP cells at 5 uM irradiated at 420 nm for 5 mins measured after 2 to 3 hrs by confocal microscopic method; assay type: ADME, subcellular; settings: human
[32] = Drug uptake in plasma membranes of HMLE-shGFP cells at 5 uM irradiated at 420 nm for 5 mins measured after 2 to 3 hrs by confocal microscopic method; assay type: ADME, cell membranes, Plasma membrane; settings: human
[33] = Drug uptake in intracellular membranes of HMLE-shGFP cells at 5 uM irradiated at 420 nm for 5 mins measured after 2 to 3 hrs by confocal microscopic method; assay type: ADME, cell membranes, Intracellular membrane; settings: human
[34] = Induction of cell damage in HMLE-shGFP cells assessed as uncoupling of cytoskeleton from plasma membrane at 5 uM irradiated at 420 nm for 5 mins measured after 2 to 3 hrs by confocal microscopic method; assay type: cell-based; settings: human
[35] = Induction of cell damage in HMLE-shGFP cells assessed as cell swelling at 5 uM irradiated at 420 nm for 5 mins measured after 2 to 3 hrs by confocal microscopic method; assay type: cell-based; settings: human
[36] = Induction of cell damage in HMLE-shGFP cells assessed as degradation of internal structure at 5 uM irradiated at 420 nm for 5 mins measured after 2 to 3 hrs by confocal microscopic method; assay type: cell-based; settings: human

For `Oc1cc2cc3ccccc3cc2cc1C(O)(c1ccccc1)c1ccccc1`, which IC50 (HCT-116 [1]) is on record?
Its IC50 is 2000 nM.

And the IC50 at 72 h [2]?
Its IC50 at 72 h is 21000 nM.

And the IC50 (HCT-116 [3])?
The IC50 was 2000 nM.

What about the IC50 at 72 h [4] of the same molecule?
The IC50 at 72 h was 19000 nM.

And the IC50 (NCI-H460 [5])?
The IC50 was 3000 nM.

What about the IC50 (NCI-H460 [6]) of the same molecule?
Its IC50 is 2000 nM.

What about the IC50 at 72 h [7] of the same molecule?
Its IC50 at 72 h is 20000 nM.

What about the IC50 (MCF7 [8]) of the same molecule?
The IC50 was 4000 nM.

What about the IC50 (MCF7 [9]) of the same molecule?
The IC50 was 2000 nM.

What about the IC50 at 72 h [10] of the same molecule?
Its IC50 at 72 h is 4000 nM.

What about the IC50 (SUM-159-PT [11]) of the same molecule?
Its IC50 is 1000 nM.

And the IC50 at 72 h [12]?
The IC50 at 72 h was 6000 nM.

And the IC50 [13]?
The IC50 was 1000 nM.

What about the IC50 [14] of the same molecule?
The IC50 was 2000 nM.

What about the IC50 at 72 h [15] of the same molecule?
The IC50 at 72 h was 2000 nM.

What about the IC50 [16] of the same molecule?
Its IC50 is 2000 nM.

What about the IC50 [17] of the same molecule?
Its IC50 is 2000 nM.

And the Activity (HMLE [18])?
The Activity was “Active”.

What about the Activity [19] of the same molecule?
The Activity was “Toxic”.

What about the Activity [20] of the same molecule?
Its Activity is “Non-Toxic”.

What about the Activity [21] of the same molecule?
Its Activity is “Toxic”.

What about the Activity (HMLE [22]) of the same molecule?
The Activity was “Active”.

What about the Activity [23] of the same molecule?
The Activity was “Toxic”.

What about the Activity [24] of the same molecule?
The Activity was “Toxic”.

And the Activity (HMLE [25])?
The Activity was “Active”.

What about the Activity (MCF7 [26]) of the same molecule?
The Activity was “inactive”.

And the Activity (SUM-159-PT [27])?
The Activity was “inactive”.

What about the Drug uptake [28] of the same molecule?
The Drug uptake was “Active”.

And the Drug uptake [29]?
The Drug uptake was “Not Active”.

And the Drug uptake [30]?
Its Drug uptake is “Active”.

What about the Drug uptake [31] of the same molecule?
Its Drug uptake is “Not Active”.

And the Drug uptake [32]?
The Drug uptake was “Active”.

And the Drug uptake [33]?
Its Drug uptake is “Active”.

What about the Activity [34] of the same molecule?
Its Activity is “Toxic”.

And the Activity [35]?
The Activity was “Toxic”.

And the Activity [36]?
The Activity was “Toxic”.
